Values quoted from earlier work, collected in patent US7713569B2, “Hydroxytyrosol-rich composition from olive vegetation water and method of use thereof” (Creagri, Inc., priority 2000, dated 2010).

Experiments:
platelet aggregation = conditions: Petroni et al., 1995
5-lipoxygenase = conditions: de la Puerta et al., 1999; Kohyama et al., 1997
[1] = test system: low density lipoprotein (LDL) oxidation; conditions: Visioli and Galli, 1998
[2] = test system: various human cellular systems; conditions: Manna et al., 2000
[3] = humans; Visioli et al., 2000
12-lipoxygenase = conditions: de la Puerta et al., 1999; Kohyama et al., 1997
[4] = test system: peroxynitrite dependent DNA base modification and tyrosine nitration; conditions: Deiana et al., 1999

OCCc1ccc(O)c(O)c1 [hydroxytyrosol, 3,4-dihydroxyphenethyl alcohol]
platelet aggregation (platelet aggregation): prevents | inhibition of 5-lipoxygenase (5-lipoxygenase): inhibits | LDL oxidation [1]: prevents | cytotoxicity induced by reactive oxygen species [2]: counteracts | absorption following ingestion [3]: dose-dependently absorbed | inhibition of 12-lipoxygenase (12-lipoxygenase): inhibits | effect on peroxynitrite dependent DNA base modification and tyrosine nitration [4]: inhibitory effect
